Measurements published in patent US4471131A, “Novel silyl esters of N-phosphonomethylglycine” (Monsanto Company, priority 1983, dated 1984).

Columns and labels:
Test in all cases: post-emergence herbicidal activity, greenhouse
Format in all cases: in vivo
Cocklebur = conditions: Table III, 4 WAT, .28 kg/h
How it was run: (§1)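 Using pans of compacted topsoil, seeds were pressed in, covered, and grown on a greenhouse sand bench with subirrigation. Once two to three weeks old, plants were sprayed individually in a chamber; pans then returned to the greenhouse, and injury versus controls was noted around 2 and 4 WAT.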

Panicum Spp = conditions: Table III
How it was run: as §1

Sugar Beet = conditions: Table III
How it was run: as §1

Velvetleaf = tested on: Velvetleaf
How it was run: as §1

Quackgrass = conditions: Table II
How it was run: (§2)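 Plants grown from seed or vegetative propagules in topsoil pans on a greenhouse sand bench, watered from below, were atomizer-sprayed at two to three weeks of age. The spray carried about 0.4% by weight emulsifier. Injury relative to unsprayed control pans was scored approximately two and four weeks after treatment.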

Yellow Nutsedge = conditions: Table II
How it was run: as §2

[1] = 2 WAT, 1.1 kg/h, formulated in anhydrous tetrahydrofuran
[2] = 2 WAT, 5.6 kg/h, formulated in anhydrous tetrahydrofuran
[3] = 2 WAT, .28 kg/h, formulated in anhydrous tetrahydrofuran
[4] = 4 WAT, 1.1 kg/h, formulated in anhydrous tetrahydrofuran
[5] = 4 WAT, 5.6 kg/h, formulated in anhydrous tetrahydrofuran
[6] = 4 WAT, .28 kg/h, formulated in anhydrous tetrahydrofuran
[7] = 2 WAT, 11.2 kg/h, formulated in anhydrous tetrahydrofuran
[8] = 4 WAT, 11.2 kg/h, formulated in anhydrous tetrahydrofuran

CCOC(=O)CNCP(=O)(O)O[Si](c1ccccc1)(c1ccccc1)C(C)(C)C [Ex. 7, Glycine, N--((([(1,1-Dimethylethyl)Diphenylsilyl]Oxy)Hydroxyphosphinyl)Methyl)-,Ethyl Ester]
Plant Response Index (B) (Cocklebur): 1 (25-49% inhibition) | Plant Response Index (B) (Cocklebur; formulated in anhydrous tetrahydrofuran): 2 (50-74% inhibition) | Plant Response Index (S) (Panicum Spp; 2 WAT, 1.1 kg/h): 4 (100% inhibition) | Plant Response Index (S) (Panicum Spp; [1]): 2 (50-74% inhibition) | Plant Response Index (S) (Panicum Spp; 2 WAT, 5.6 kg/h): 3 (75-99% inhibition) | Plant Response Index (S) (Panicum Spp; [2]): 4 (100% inhibition) | Plant Response Index (S) (Panicum Spp; 2 WAT, .28 kg/h): 3 (75-99% inhibition) | Plant Response Index (S) (Panicum Spp; [3]): 1 (25-49% inhibition) | Plant Response Index (S) (Panicum Spp; 4 WAT, 1.1 kg/h): 4 (100% inhibition) | Plant Response Index (S) (Panicum Spp; [4]): 2 (50-74% inhibition) | Plant Response Index (S) (Panicum Spp; 4 WAT, 5.6 kg/h): 4 (100% inhibition) | Plant Response Index (S) (Panicum Spp; [5]): 4 (100% inhibition) | Plant Response Index (S) (Panicum Spp; 4 WAT, .28 kg/h): 3 (75-99% inhibition) | Plant Response Index (S) (Panicum Spp; [6]): 1 (25-49% inhibition) | Plant Response Index (M) (Sugar Beet; 2 WAT, 1.1 kg/h): 1 (25-49% inhibition) | Plant Response Index (M) (Sugar Beet; [1]): 1 (25-49% inhibition) | Plant Response Index (M) (Sugar Beet; 2 WAT, 5.6 kg/h): 1 (25-49% inhibition) | Plant Response Index (M) (Sugar Beet; [2]): 3 (75-99% inhibition) | Plant Response Index (M) (Sugar Beet; 2 WAT, .28 kg/h): 1 (25-49% inhibition) | Plant Response Index (M) (Sugar Beet; [3]): 1 (25-49% inhibition) | Plant Response Index (M) (Sugar Beet; 4 WAT, 1.1 kg/h): 1 (25-49% inhibition) | Plant Response Index (M) (Sugar Beet; [4]): 1 (25-49% inhibition) | Plant Response Index (M) (Sugar Beet; 4 WAT, 5.6 kg/h): 2 (50-74% inhibition) | Plant Response Index (M) (Sugar Beet; [5]): 4 (100% inhibition) | Plant Response Index (M) (Sugar Beet; 4 WAT, .28 kg/h): 1 (25-49% inhibition) | Plant Response Index (M) (Sugar Beet; [6]): 1 (25-49% inhibition) | Plant Response Index (C) (Velvetleaf; Table II, 2 WAT, 5.6 kg/h): 2 (50-74% inhibition) | Plant Response Index (C) (Velvetleaf; Table II, 2 WAT, 5.6 kg/h, formulated in anhydrous tetrahydrofuran): 1 (25-49% inhibition) | Plant Response Index (C) (Velvetleaf; Table II, 2 WAT, 11.2 kg/h): 3 (75-99% inhibition) | Plant Response Index (C) (Velvetleaf; Table II, 2 WAT, 11.2 kg/h, formulated in anhydrous tetrahydrofuran): 1 (25-49% inhibition) | Plant Response Index (C) (Velvetleaf; Table II, 4 WAT, 5.6 kg/h): 3 (75-99% inhibition) | Plant Response Index (C) (Velvetleaf; Table II, 4 WAT, 5.6 kg/h, formulated in anhydrous tetrahydrofuran): 2 (50-74% inhibition) | Plant Response Index (C) (Velvetleaf; Table II, 4 WAT, 11.2 kg/h): 3 (75-99% inhibition) | Plant Response Index (C) (Velvetleaf; Table II, 4 WAT, 11.2 kg/h, formulated in anhydrous tetrahydrofuran): 1 (25-49% inhibition) | Plant Response Index (C) (Velvetleaf; Table III, 2 WAT, 1.1 kg/h): 1 (25-49% inhibition) | Plant Response Index (C) (Velvetleaf; Table III, 2 WAT, 1.1 kg/h, formulated in anhydrous tetrahydrofuran): 2 (50-74% inhibition) | Plant Response Index (C) (Velvetleaf; Table III, 2 WAT, 5.6 kg/h): 2 (50-74% inhibition) | Plant Response Index (C) (Velvetleaf; Table III, 2 WAT, 5.6 kg/h, formulated in anhydrous tetrahydrofuran): 2 (50-74% inhibition) | Plant Response Index (C) (Velvetleaf; Table III, 2 WAT, .28 kg/h): 1 (25-49% inhibition) | Plant Response Index (C) (Velvetleaf; Table III, 2 WAT, .28 kg/h, formulated in anhydrous tetrahydrofuran): 1 (25-49% inhibition) | Plant Response Index (C) (Velvetleaf; Table III, 4 WAT, 1.1 kg/h): 1 (25-49% inhibition) | Plant Response Index (C) (Velvetleaf; Table III, 4 WAT, 1.1 kg/h, formulated in anhydrous tetrahydrofuran): 2 (50-74% inhibition) | Plant Response Index (C) (Velvetleaf; Table III, 4 WAT, 5.6 kg/h): 2 (50-74% inhibition) | Plant Response Index (C) (Velvetleaf; Table III, 4 WAT, 5.6 kg/h, formulated in anhydrous tetrahydrofuran): 3 (75-99% inhibition) | Plant Response Index (C) (Velvetleaf; Table III, 4 WAT, .28 kg/h): 1 (25-49% inhibition) | Plant Response Index (C) (Velvetleaf; Table III, 4 WAT, .28 kg/h, formulated in anhydrous tetrahydrofuran): 1 (25-49% inhibition) | Plant Response Index (H) (Quackgrass; 2 WAT, 5.6 kg/h): 1 (25-49% inhibition) | Plant Response Index (H) (Quackgrass; [2]): 1 (25-49% inhibition) | Plant Response Index (H) (Quackgrass; 2 WAT, 11.2 kg/h): 2 (50-74% inhibition) | Plant Response Index (H) (Quackgrass; [7]): 1 (25-49% inhibition) | Plant Response Index (H) (Quackgrass; 4 WAT, 5.6 kg/h): 4 (100% inhibition) | Plant Response Index (H) (Quackgrass; [5]): 2 (50-74% inhibition) | Plant Response Index (H) (Quackgrass; 4 WAT, 11.2 kg/h): 3 (75-99% inhibition) | Plant Response Index (H) (Quackgrass; [8]): 2 (50-74% inhibition) | Plant Response Index (G) (Yellow Nutsedge; 2 WAT, 5.6 kg/h): 1 (25-49% inhibition) | Plant Response Index (G) (Yellow Nutsedge; [2]): 1 (25-49% inhibition) | Plant Response Index (G) (Yellow Nutsedge; 2 WAT, 11.2 kg/h): 2 (50-74% inhibition) | Plant Response Index (G) (Yellow Nutsedge; [7]): 1 (25-49% inhibition) | Plant Response Index (G) (Yellow Nutsedge; 4 WAT, 5.6 kg/h): 2 (50-74% inhibition) | Plant Response Index (G) (Yellow Nutsedge; [5]): 2 (50-74% inhibition) | Plant Response Index (G) (Yellow Nutsedge; 4 WAT, 11.2 kg/h): 3 (75-99% inhibition) | Plant Response Index (G) (Yellow Nutsedge; [8]): 2 (50-74% inhibition)
